Measured values reported in US5789384A, “Pharmaceutical dipeptide compositions and methods of use thereof” (priority 1995, dated 1998).

Conditions: in vivo

## CC[C@H](C)[C@H](N)C(=O)N[C@@H](Cc1c[nH]c2ccccc12)C(=O)O [Ile-Trp, L-Ile-L-Trp]
  side effects from the use of the dipeptide: not found any significant side effects
